Measurements reported in patent US9125913B2, “Bcl-2-selective apoptosis-inducing agents for the treatment of cancer and immune diseases” (AbbVie Inc., priority 2008, dated 2015).

Each compound was assayed on GST-Bcl-2 (assay: TR-FRET binding assay, Bcl-2). Conditions: TR-FRET Ki values.
In short: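 Compounds serially diluted in DMSO from 50 μM (2× starting concentration, 10% DMSO), mixed with GST-tagged protein, F-Bak peptide probe and Tb-labeled antibody, incubated 3 h at room temperature.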

Row | Compound | Binding selectivity ratio (Bcl-XL Ki/Bcl-2 Ki)
1 | CC1(C)CCC(CN2CCN(c3ccc(C(=O)NS(=O)(=O)c4ccc(OCC5COCCO5)c([N+](=O)[O-])c4)c(Oc4ccc5[nH]ccc5c4)c3)CC2)=C(c2ccc(Cl)cc2)C1 (stereo not shown) [EXAMPLE 297, 4-(4-{[2-(4-chlorophenyl)-4,4-dimethylcyclohex-1-en-1-yl]methyl}piperazin-1-yl)-N-{[4-(1,4-dioxan-2-ylmethoxy)-3-nitrophenyl]sulfonyl}-2-(1H-indol-5-yloxy)benzamide] | 2209.5
2 | CC1(C)CCC(CN2CCN(c3ccc(C(=O)NS(=O)(=O)c4ccc(NCCC#N)c([N+](=O)[O-])c4)c(Oc4cccc5[nH]ccc45)c3)CC2)=C(c2ccc(Cl)cc2)C1 [EXAMPLE 320, 4-(4-{[2-(4-chlorophenyl)-4,4-dimethylcyclohex-1-en-1-yl]methyl}piperazin-1-yl)-N-({4-[(2-cyanoethyl)amino]-3-nitrophenyl}sulfonyl)-2-(1H-indol-4-yloxy)benzamide] | 103.6
3 | CC1(C)CCC(CN2CCN(c3ccc(C(=O)NS(=O)(=O)c4ccc(NCC5(CO)CCOCC5)c([N+](=O)[O-])c4)c(Oc4ccc5[nH]ccc5c4)c3)CC2)=C(c2ccc(Cl)cc2)C1 [EXAMPLE 232, 4-(4-{[2-(4-chlorophenyl)-4,4-dimethylcyclohex-1-en-1-yl]methyl}piperazin-1-yl)-N-{[4-({[4-(hydroxymethyl)tetrahydro-2H-pyran-4-yl]methyl}amino)-3-nitrophenyl]sulfonyl}-2-(1H-indol-5-yloxy)benzamide] | 429.1
4 | O=C(NS(=O)(=O)c1ccc(NCC2CCOCC2)c(S(=O)(=O)C(F)(F)F)c1)c1ccc(N2CCN(Cc3ccccc3-c3ccc(Cl)cc3)CC2)cc1Oc1ccccc1 [Example 163, 4-{4-[(4′-chloro-1,1′-biphenyl-2-yl)methyl]piperazin-1-yl}-2-phenoxy-N-({4-[(tetrahydro-2H-pyran-4-ylmethyl)amino]-3-[(trifluoromethyl)sulfonyl]phenyl}sulfonyl)benzamide] | >117.5
5 | CC1(C)CCC(CN2CCN(c3ccc(C(=O)NS(=O)(=O)c4cnc(OCC5CCOCC5)c(C#N)c4)c(Oc4ccc5[nH]ccc5c4)c3)CC2)=C(c2ccc(Cl)cc2)C1 [EXAMPLE 333, 4-(4-{[2-(4-chlorophenyl)-4,4-dimethylcyclohex-1-en-1-yl]methyl}piperazin-1-yl)-N-{[5-cyano-6-(tetrahydro-2H-pyran-4-ylmethoxy)pyridin-3-yl]sulfonyl}-2-(1H-indol-5-yloxy)benzamide] | >7415.7
6 | O=C(NS(=O)(=O)c1ccc(NCC2CCOCC2)c(S(=O)(=O)C(F)(F)F)c1)c1ccc(N2CCN(Cc3cc(OCCCN4CCCCC4)ccc3-c3ccc(Cl)cc3)CC2)cc1Oc1ccccc1 [Example 118, 4-(4-{[4′-chloro-4-(3-piperidin-1-ylpropoxy)-1,1′-biphenyl-2-yl]methyl}piperazin-1-yl)-2-phenoxy-N-({4-[(tetrahydro-2H-pyran-4-ylmethyl)amino]-3-[(trifluoromethyl)sulfonyl]phenyl}sulfonyl)benzamide] | >858.3
7 | CC1(C)CCC(CN2CCN(c3ccc(C(=O)NS(=O)(=O)c4ccc(NC5CCN(CCO)CC5)c([N+](=O)[O-])c4)c(Oc4cccc5[nH]ccc45)c3)CC2)=C(c2ccc(Cl)cc2)C1 [EXAMPLE 191, 4-(4-{[2-(4-chlorophenyl)-4,4-dimethylcyclohex-1-en-1-yl]methyl}piperazin-1-yl)-N-[(4-{[1-(2-hydroxyethyl)piperidin-4-yl]amino}-3-nitrophenyl)sulfonyl]-2-(1H-indol-4-yloxy)benzamide] | 125.2
8 | CC1(C)CCC(CN2CCN(c3ccc(C(=O)NS(=O)(=O)c4ccc(NCCCN5CCOCC5)c(S(=O)(=O)C(F)(F)F)c4)c(Oc4cccc5[nH]ccc45)c3)CC2)=C(c2ccc(Cl)cc2)C1 [EXAMPLE 349, 4-(4-{[2-(4-chlorophenyl)-4,4-dimethylcyclohex-1-en-1-yl]methyl}piperazin-1-yl)-2-(1H-indol-4-yloxy)-N-({4-[(3-morpholin-4-ylpropyl)amino]-3-[(trifluoromethyl)sulfonyl]phenyl}sulfonyl)benzamide] | 51.9
9 | CC1(C)CCC(CN2CCN(c3ccc(C(=O)NS(=O)(=O)c4ccc(NCC5CCOCC5)c([N+](=O)[O-])c4)c(Oc4cccc5[nH]ccc45)c3)CC2)=C(c2ccc(Cl)cc2)C1 [EXAMPLE 244, 4-(4-{[2-(4-chlorophenyl)-4,4-dimethylcyclohex-1-en-1-yl]methyl}piperazin-1-yl)-2-(1H-indol-4-yloxy)-N-({3-nitro-4-[(tetrahydro-2H-pyran-4-ylmethyl)amino]phenyl}sulfonyl)benzamide] | >4136.9
10 | CC1(C)CCC(CN2CCN(c3ccc(C(=O)NS(=O)(=O)c4ccc(NC5CCN(CCCO)CC5)c([N+](=O)[O-])c4)c(Oc4ccc5[nH]ccc5c4)c3)CC2)=C(c2ccc(Cl)cc2)C1 [EXAMPLE 197, 4-(4-{[2-(4-chlorophenyl)-4,4-dimethylcyclohex-1-en-1-yl]methyl}piperazin-1-yl)-N-[(4-{[1-(3-hydroxypropyl)piperidin-4-yl]amino}-3-nitrophenyl)sulfonyl]-2-(1H-indol-5-yloxy)benzamide] | 193
11 | CC1(C)CCC(CN2CCN(c3ccc(C(=O)NS(=O)(=O)c4cnc(OCCN5CCOCC5)c(C#N)c4)c(Oc4ccc5[nH]ccc5c4)c3)CC2)=C(c2ccc(Cl)cc2)C1 [EXAMPLE 388, 4-(4-{[2-(4-chlorophenyl)-4,4-dimethylcyclohex-1-en-1-yl]methyl}piperazin-1-yl)-N-{[5-cyano-6-(2-morpholin-4-ylethoxy)pyridin-3-yl]sulfonyl}-2-(1H-indol-5-yloxy)benzamide] | 185.1
12 | O=C(NS(=O)(=O)c1ccc(NCC2CCOCC2)c([N+](=O)[O-])c1)c1ccc(N2CCN(Cc3cc(N4CCOCC4)ccc3-c3ccc(Cl)cc3)CC2)cc1Oc1cccc2[nH]ccc12 [EXAMPLE 198, 4-{4-[(4′-chloro-4-morpholin-4-yl-1,1′-biphenyl-2-yl)methyl]piperazin-1-yl}-2-(1H-indol-4-yloxy)-N-({3-nitro-4-[(tetrahydro-2H-pyran-4-ylmethyl)amino]phenyl}sulfonyl)benzamide] | >166.4
13 | O=C(NS(=O)(=O)c1ccc(NCCCN2CCOCC2)c([N+](=O)[O-])c1)c1ccc(N2CCN(Cc3ccccc3-c3ccc(Cl)cc3)CC2)cc1Oc1ccc2[nH]ccc2c1 [Example 59, 4-{4-[(4′-chloro-1,1′-biphenyl-2-yl)methyl]piperazin-1-yl}-2-(1H-indol-5-yloxy)-N-({4-[(3-morpholin-4-ylpropyl)amino]-3-nitrophenyl}sulfonyl)benzamide] | 1867.6
14 | CC1(C)CCC(CN2CCN(c3ccc(C(=O)NS(=O)(=O)c4cnc(OCC5(F)CCOCC5)c(C#N)c4)c(Oc4ccc5[nH]ccc5c4)c3)CC2)=C(c2ccc(Cl)cc2)C1 [EXAMPLE 385, 4-(4-{[2-(4-chlorophenyl)-4,4-dimethylcyclohex-1-en-1-yl]methyl}piperazin-1-yl)-N-({5-cyano-6-[(4-fluorotetrahydro-2H-pyran-4-yl)methoxy]pyridin-3-yl}sulfonyl)-2-(1H-indol-5-yloxy)benzamide] | 2096.5
15 | CN1CC(Nc2ccc(S(=O)(=O)NC(=O)c3ccc(N4CCN(CC5=C(c6ccc(Cl)cc6)CC(C)(C)CC5)CC4)cc3Oc3ccc4[nH]ccc4c3)cc2[N+](=O)[O-])CC1=O (stereo not shown) [EXAMPLE 281, 4-(4-{[2-(4-chlorophenyl)-4,4-dimethylcyclohex-1-en-1-yl]methyl}piperazin-1-yl)-2-(1H-indol-5-yloxy)-N-({4-[(1-methyl-5-oxopyrrolidin-3-yl)amino]-3-nitrophenyl}sulfonyl)benzamide] | 1558.9
16 | CC1(C)CCC(CN2CCN(c3ccc(C(=O)NS(=O)(=O)c4ccc(N[C@H]5CC[C@H](N6CCOCC6)CC5)c([N+](=O)[O-])c4)c(Oc4ccc5[nH]ccc5c4)c3)CC2)=C(c2ccc(Cl)cc2)C1 [Example 178, Trans-4-(4-{[2-(4-chlorophenyl)-4,4-dimethylcyclohex-1-en-1-yl]methyl}piperazin-1-yl)-2-(1H-indol-5-yloxy)-N-({4-[(4-morpholin-4-ylcyclohexyl)amino]-3-nitrophenyl}sulfonyl)benzamide] | >2915.8
17 | CC1(C)CCC(CN2CCN(c3ccc(C(=O)NS(=O)(=O)c4ccc(NC5CCN(c6nccs6)CC5)c([N+](=O)[O-])c4)c(Oc4ccc5[nH]ccc5c4)c3)CC2)=C(c2ccc(Cl)cc2)C1 [EXAMPLE 212, 4-(4-{[2-(4-chlorophenyl)-4,4-dimethylcyclohex-1-en-1-yl]methyl}piperazin-1-yl)-2-(1H-indol-5-yloxy)-N-[(3-nitro-4-{[1-(1,3-thiazol-2-yl)piperidin-4-yl]amino}phenyl)sulfonyl]benzamide] | >895.1
18 | CC1(C)CCC(CN2CCN(c3ccc(C(=O)NS(=O)(=O)c4ccc(NC5CCN(CCCF)CC5)c([N+](=O)[O-])c4)c(Oc4ccc5[nH]ccc5c4)c3)CC2)=C(c2ccc(Cl)cc2)C1 [EXAMPLE 235, 4-(4-{[2-(4-chlorophenyl)-4,4-dimethylcyclohex-1-en-1-yl]methyl}piperazin-1-yl)-N-[(4-{[1-(3-fluoropropyl)piperidin-4-yl]amino}-3-nitrophenyl)sulfonyl]-2-(1H-indol-5-yloxy)benzamide] | 231.4
19 | CO[C@H]1CC[C@H](CNc2ccc(S(=O)(=O)NC(=O)c3ccc(N4CCN(CC5=C(c6ccc(Cl)cc6)CC(C)(C)CC5)CC4)cc3Oc3cccc4[nH]ncc34)cc2[N+](=O)[O-])CC1 [EXAMPLE 446, Trans-4-(4-{[2-(4-chlorophenyl)-4,4-dimethylcyclohex-1-en-1-yl]methyl}piperazin-1-yl)-2-(1H-indazol-4-yloxy)-N-[(4-{[(4-methoxycyclohexyl)methyl]amino}-3-nitrophenyl)sulfonyl]benzamide] | 508.4
